# Patent publication US4115385A, “Antibacterial 3-(5-tetrazolyl) penam compounds” (Pfizer Inc., priority 1977, dated 1978)
# System: Streptococcus pyogenes
# Assay: In vitro minimum inhibitory concentration (MIC) vs. Strep. pyogenes
# Format: cell-based
# Details: Streptococcus pyogenes, read-out: MIC vs. Strep. pyogenes
# Experimental: The antibacterial penam compounds of the instant invention show activity against a wide variety of gram-positive and gram-negative bacteria. […] The broth is inoculated with the bacterial culture, and with the test antibiotic, and then it is incubated overnight. On the next day, the test is read visually. The minimum inhibitory concentration (MIC) is the lowest concentration of antibiotic which prevents turbidity, i.e., which prevents growth of the microorganism. In vitro activities of several of the penam compounds of the invention are presented later in this specification.
# In Table II, the minimum inhibitory concentrations (MIC's) of compounds of formula I, wherein R^2 is hydrogen, against a strain of Streptococcus pyogenes, are reported; and in Table III, minimum inhibitory concentrations of compounds of formula I, wherein R^2 is hydrogen, against a strain of Staphylococcus aureus, are presented. Because of the tautomeric nature of such tetrazole derivatives, referred to hereinbefore,each of the preparations tested also contains some of the corresponding compound of formula II, wherein R^3 is hydrogen.
row,Structure (SMILES),MIC
1,CC(=O)NCCC(=O)N[C@@H](C(=O)N[C@@H]1C(=O)N2[C@@H]1SC(C)(C)[C@@H]2c1nnn[nH]1)c1ccccc1,< 0.1 µg/mL
2,CC1(C)S[C@@H]2[C@H](NC(=O)[C@H](NC(=O)c3ccc[nH]3)c3ccccc3)C(=O)N2[C@H]1c1nnn[nH]1,< 0.1 µg/mL
3,CC1(C)S[C@@H]2[C@H](NC(=O)[C@H](NC(=O)NC(=O)c3cccnc3)c3ccccc3)C(=O)N2[C@H]1c1nn[nH]n1,0.1 µg/mL
4,CC1(C)S[C@@H]2[C@H](NC(=O)C(N)c3ccc(S(N)(=O)=O)cc3)C(=O)N2[C@H]1c1nnn[nH]1 (mixture of isomers) [DL-2-amino-2-(p-sulfamoylphenyl)acetyl],< 0.1 µg/mL
5,CCCC(=O)NC(=O)N[C@@H](C(=O)N[C@@H]1C(=O)N2[C@@H]1SC(C)(C)[C@@H]2c1nn[nH]n1)c1ccccc1 [2-(3-butyrylureido)-2-phenylacetyl],< 0.1 µg/mL
6,CNC(=O)NCCC(=O)N[C@@H](C(=O)N[C@@H]1C(=O)N2[C@@H]1SC(C)(C)[C@@H]2c1nnn[nH]1)c1ccccc1,< 0.1 µg/mL
7,"CC1(C)S[C@@H]2[C@H](NC(=O)C(C(=O)O)c3ccsc3)C(=O)N2[C@H]1c1nnn[nH]1 (some centres unmarked) [2-carboxy-2-(3-thienyl)acetyl, 6-(2-Carboxy-2-[3-thienyl]acetamido)-2,2-dimethyl-3-(5-tetrazolyl)penam]",0.1 µg/mL
8,CC1(C)S[C@@H]2[C@H](NC(=O)[C@H](NC(=O)NC(=O)c3ccccc3)c3ccccc3)C(=O)N2[C@H]1c1nn[nH]n1 [2-(3-benzoylureido)-2-phenylacetyl],< 0.1 µg/mL
9,CC1(C)S[C@@H]2[C@H](NC(=O)[C@H](NC(=O)CNS(C)(=O)=O)c3ccccc3)C(=O)N2[C@H]1c1nn[nH]n1,< 0.1 µg/mL
10,CC(=O)NC(=O)N[C@@H](C(=O)N[C@@H]1C(=O)N2[C@@H]1SC(C)(C)[C@@H]2c1nn[nH]n1)c1ccccc1 [2-(3-acetylureido)-2-phenylacetyl],< 0.1 µg/mL
11,"CC1(C)S[C@@H]2[C@H](NC(=O)C(NC(=O)CSC3=NCCN3)c3ccccc3)C(=O)N2[C@H]1c1nn[nH]n1 (some centres unmarked) [6-(2-[2-(Δ^1 -Imidazolin-2-ylthio)acetamido]-2-phenylacetamido)-2,2-dimethyl-3-(5-tetrazolyl)penam]",< 0.1 µg/mL
12,COc1ccc(CC(=O)N[C@@H](C(=O)N[C@@H]2C(=O)N3[C@@H]2SC(C)(C)[C@@H]3c2nnn[nH]2)c2ccccc2)cc1,0.1 µg/mL
13,"CC1(C)S[C@@H]2[C@H](NC(=O)CNC(=O)c3ccccc3)C(=O)N2[C@H]1c1nn[nH]n1 [2-(benzamido)acetyl, 6-(2-[Benzamido]acetamido)-2,2-dimethyl-3-(5-tetrazolyl)penam]",0.1 µg/mL
14,CC1(C)S[C@@H]2[C@H](NC(=O)[C@H](NC(=O)Nc3ccc(Cl)cc3)c3ccc(O)cc3)C(=O)N2[C@H]1c1nnn[nH]1,< 0.1 µg/mL
15,CCSCC(=O)N[C@@H]1C(=O)N2[C@@H]1SC(C)(C)[C@@H]2c1nnn[nH]1 [2-(ethylthio)acetyl],< 0.1 µg/mL
16,"CN(C)C=N[C@@H](C(=O)N[C@@H]1C(=O)N2[C@@H]1SC(C)(C)[C@@H]2c1nnn[nH]1)c1ccc(O)cc1 [6-(D-2-[Dimethylaminomethyleneamino]-2-[p-hydroxyphenyl]-acetamido)-2,2-dimethyl-3-(5-tetrazolyl)-penam]",< 0.1 µg/mL
17,"CC1(C)S[C@@H]2[C@H](NC(=O)Cc3ccc(OCCN)cc3)C(=O)N2[C@H]1c1nn[nH]n1 [2-(4-[2-aminoethoxy]phenyl)acetyl, 6-(2-[4-(2-Aminoethoxy)phenyl]acetamido)-2,2-dimethyl-3-(5-tetrazolyl)penam]",< 0.1 µg/mL
18,CC1(C)S[C@@H]2[C@H](NC(=O)[C@H](NC(=O)CNC(=O)c3ccc(Cl)cc3)c3ccccc3)C(=O)N2[C@H]1c1nnn[nH]1,0.1 µg/mL
19,COc1ccc(C(=N)NC(=O)NCC(=O)N[C@@H]2C(=O)N3[C@@H]2SC(C)(C)[C@@H]3c2nnn[nH]2)cc1,0.1 µg/mL
20,CCOC(=O)CC(=O)N[C@@H](C(=O)N[C@@H]1C(=O)N2[C@@H]1SC(C)(C)[C@@H]2c1nnn[nH]1)c1ccccc1,< 0.1 µg/mL
21,CC1(C)S[C@@H]2[C@H](NC(=O)[C@H](NC(=O)CCC(=N)N)c3ccccc3)C(=O)N2[C@H]1c1nn[nH]n1,< 0.1 µg/mL
22,"CC1(C)S[C@@H]2[C@H](NC(=O)[C@H](NC(=O)Cc3ccc(N)cc3)c3ccccc3)C(=O)N2[C@H]1c1nn[nH]n1 [6-(D-2-[2-(4-Aminophenyl)acetamido]-2-phenylacetamido)-2,2-dimethyl-3-(5-tetrazolyl)penam]",< 0.1 µg/mL
23,"CN(C)C=N[C@@H](C(=O)N[C@@H]1C(=O)N2[C@@H]1SC(C)(C)[C@@H]2c1nnn[nH]1)c1ccccc1 [6-(D-2-[Dimethylaminomethyleneamino]-2-phenylacetamido)-2,2-dimethyl-3-(5-tetrazolyl)penam]",< 0.1 µg/mL
24,CCC(=O)NCC(=O)N[C@@H](C(=O)N[C@@H]1C(=O)N2[C@@H]1SC(C)(C)[C@@H]2c1nn[nH]n1)c1ccccc1,< 0.1 µg/mL
25,CC1(C)S[C@@H]2[C@H](NC(=O)[C@H](NC(=O)Cc3ccco3)c3ccccc3)C(=O)N2[C@H]1c1nnn[nH]1,< 0.1 µg/mL
26,"CC1(C)S[C@@H]2[C@H](NC(=O)C(NC(=O)CBr)c3ccccc3)C(=O)N2[C@H]1c1nn[nH]n1 (some centres unmarked) [2-(2-bromoacetamido)-2-phenylacetyl, 6-(2-[2-bromoacetamido]-2-phenylacetamido)-2,2-dimethyl-3-(5-tetrazolyl)penam]",< 0.1 µg/mL
27,CC1(C)S[C@@H]2[C@H](NC(=O)[C@H](NC(=O)CNC(=N)c3ccc([N+](=O)[O-])cc3)c3ccccc3)C(=O)N2[C@H]1c1nnn[nH]1,< 0.1 µg/mL
28,CCSCC(=O)N[C@@H](C(=O)N[C@@H]1C(=O)N2[C@@H]1SC(C)(C)[C@@H]2c1nnn[nH]1)c1ccccc1,< 0.1 µg/mL
29,"CC1(C)S[C@@H]2[C@H](NC(=O)Cc3ccc(CN=[N+]=[N-])s3)C(=O)N2[C@H]1c1nnn[nH]1 [2-(5-azidomethyl-2-thienyl)-acetyl, 6-(2-[5-Azidomethyl-2-thienyl]acetamido)-2,2-dimethyl-3-(5-tetrazolyl)penam]",≤ 0.1 µg/mL
30,"CC1(C)S[C@@H]2[C@H](NC(=O)Cc3ccccc3CN=[N+]=[N-])C(=O)N2[C@H]1c1nnn[nH]1 [2-(2-azidomethylphenyl)acetyl, 6-(2-[2-Azidomethylphenyl]acetamido)-2,2-dimethyl-3-(5-tetrazolyl)penam]",≤ 0.1 µg/mL

# Same assay, conditions: Streptococcus pyogenes; Table II; two-fold serial dilution, Brain-Heart Infusion broth, overnight; read-out: MIC vs. Strep. pyogenes
row,MIC,Structure (SMILES)
1,0.39 µg/mL,CCNC(=S)NCCC(=O)N[C@@H](C(=O)N[C@@H]1C(=O)N2[C@@H]1SC(C)(C)[C@@H]2c1nnn[nH]1)c1ccccc1
2,1.56 µg/mL,CC1(C)S[C@@H]2[C@H](NC(=O)CSc3ccccc3CN)C(=O)N2[C@H]1c1nnn[nH]1 [2-(2-[aminomethyl]phenylthio)acetyl]
3,0.004 µg/mL,CC1(C)S[C@@H]2[C@H](NC(=O)[C@H](NC(=O)CNC(=N)c3cc(Cl)cc(S(N)(=O)=O)c3)c3ccccc3)C(=O)N2[C@H]1c1nnn[nH]1
4,0.39 µg/mL,CC1(C)S[C@@H]2[C@H](NC(=O)[C@H](NC(=O)CNC(=O)NC(=N)NCc3ccc(Cl)cc3)c3ccccc3)C(=O)N2[C@H]1c1nn[nH]n1
5,0.004 µg/mL,CC1(C)S[C@@H]2[C@H](NC(=O)[C@H](NC(=O)CC#N)c3ccccc3)C(=O)N2[C@H]1c1nnn[nH]1 [D-2-(2-cyanoacetamido)-2-phenylacetyl]
6,0.004 µg/mL,CCN=C(NCC)SCC(=O)N[C@@H](C(=O)N[C@@H]1C(=O)N2[C@@H]1SC(C)(C)[C@@H]2c1nn[nH]n1)c1ccccc1
7,0.78 µg/mL,CC1(C)S[C@@H]2[C@H](NC(=O)[C@H](NC(=O)CNC(=O)NC(=N)c3ccccc3)c3ccccc3)C(=O)N2[C@H]1c1nnn[nH]1
8,1.56 µg/mL,CC1(C)S[C@@H]2[C@H](NC(=O)[C@H](NC(=O)CCNC(=S)Nc3ccccc3)c3ccccc3)C(=O)N2[C@H]1c1nnn[nH]1
9,0.2 µg/mL,CC1(C)S[C@@H]2[C@H](NC(=O)[C@H](NC(=O)CNC(=O)NS(C)(=O)=O)c3ccccc3)C(=O)N2[C@H]1c1nnn[nH]1
10,12.5 µg/mL,"C/C(CN)=C(\C(=O)NC1C(=O)N2C(c3nnn[nH]3)C(C)(C)S[C@H]12)c1ccccc1 (some centres unmarked) [3-aminomethyl-2-phenylisocrotonoyl, 6-(3-Aminomethyl-2-phenylisocrotonamido)-2,2-dimethyl-3-(5-tetrazolyl)penam]"
11,0.002 µg/mL,"CC1(C)S[C@@H]2[C@H](NC(=O)C(C(=O)O)c3ccccc3)C(=O)N2[C@H]1c1nnn[nH]1 (some centres unmarked) [2-carboxy-2-phenylacetyl, 6-(2-Carboxy-2-phenylacetamido)-2,2-dimethyl-3-(5-tetrazolyl)penam]"
12,0.39 µg/mL,CCOC(=O)CC(=O)N[C@@H]1C(=O)N2[C@@H]1SC(C)(C)[C@@H]2c1nnn[nH]1 [2-(ethoxycarbonyl)acetyl]
13,50 µg/mL,CC(=O)C(=O)N[C@@H](C(=O)N[C@@H]1C(=O)N2[C@@H]1SC(C)(C)[C@@H]2c1nnn[nH]1)c1ccccc1 [D-2-(acetylformamido)-2-phenylacetyl]
14,0.2 µg/mL,"CC1(C)S[C@@H]2[C@H](NC(=O)[C@H](NC(=O)COc3ccccc3)c3ccc(O)cc3)C(=O)N2[C@H]1c1nnn[nH]1 [6-(D-2-[2-Phenoxyacetamido]-2-[4-hydroxyphenyl]acetamido)-2,2-dimethyl-3-(5-tetrazol-5-yl)penam]"
15,0.39 µg/mL,CC1(C)S[C@@H]2[C@H](NC(=O)[C@H](NS(=O)(=O)c3cccs3)c3ccccc3)C(=O)N2[C@H]1c1nn[nH]n1
16,3.12 µg/mL,CC1(C)S[C@@H]2[C@H](NC(=O)[C@H](NC(=O)c3ccncc3)c3ccccc3)C(=O)N2[C@H]1c1nnn[nH]1

row,Structure (SMILES),MIC
1,"CC1(C)S[C@@H]2[C@H](NC(=O)[C@@H](N)Cc3ccc(O)cc3)C(=O)N2[C@H]1c1nn[nH]n1 [L-2-amino-3-(p-hydroxyphenyl)propionyl, 6-(L-2-amino-3-[4-hydroxyphenyl]propionamido)-2,2-dimethyl-3-(5-tetrazoyl)penam]",0.2 µg/mL
